Experimental data reported in US20240408096A1, “DOSING REGIMENS FOR ORAL ALK2 KINASE INHIBITORS” (BioCryst Pharmaceuticals, Inc., priority 2020, published 2024).

Tests used:
wtALK2 = target: T1, wtALK2 (Homo sapiens, UniProt Q04771); assay: wtALK2 functional assays; format: biochemical; conditions: several functional assays; read-out: wtALK2 activity potency (IC50)
T1 sequence (Q04771 21-509): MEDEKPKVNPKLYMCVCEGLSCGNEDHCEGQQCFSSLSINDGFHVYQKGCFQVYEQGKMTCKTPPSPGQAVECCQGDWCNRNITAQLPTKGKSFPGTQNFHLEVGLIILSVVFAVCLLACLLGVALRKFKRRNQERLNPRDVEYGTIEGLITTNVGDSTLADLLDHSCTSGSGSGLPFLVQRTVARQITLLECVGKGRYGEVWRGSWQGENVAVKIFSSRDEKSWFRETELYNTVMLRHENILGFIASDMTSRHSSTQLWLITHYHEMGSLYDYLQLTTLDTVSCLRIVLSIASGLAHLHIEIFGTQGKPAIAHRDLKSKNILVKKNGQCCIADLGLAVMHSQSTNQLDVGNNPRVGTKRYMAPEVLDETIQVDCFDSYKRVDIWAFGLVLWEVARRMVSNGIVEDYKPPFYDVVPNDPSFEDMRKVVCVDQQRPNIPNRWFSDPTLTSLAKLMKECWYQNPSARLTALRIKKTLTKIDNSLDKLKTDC

[1] = tested on: G-protein coupled receptor (GPCRs) related kinases; assay: off-target screening study
[2] = safety pharmacology studies (CNS, respiratory, cardiovascular); format: in vivo; conditions: HEDs exceeding likely human daily clinical dose ranges (5 to 200 mg)
cytochrome P450 (CYP)1A2 = target: T2, cytochrome P450 (CYP)1A2 (Homo sapiens, UniProt P05177); assay: CYP inhibition in vitro; format: in vitro ADME
T2 sequence (P05177 1-516): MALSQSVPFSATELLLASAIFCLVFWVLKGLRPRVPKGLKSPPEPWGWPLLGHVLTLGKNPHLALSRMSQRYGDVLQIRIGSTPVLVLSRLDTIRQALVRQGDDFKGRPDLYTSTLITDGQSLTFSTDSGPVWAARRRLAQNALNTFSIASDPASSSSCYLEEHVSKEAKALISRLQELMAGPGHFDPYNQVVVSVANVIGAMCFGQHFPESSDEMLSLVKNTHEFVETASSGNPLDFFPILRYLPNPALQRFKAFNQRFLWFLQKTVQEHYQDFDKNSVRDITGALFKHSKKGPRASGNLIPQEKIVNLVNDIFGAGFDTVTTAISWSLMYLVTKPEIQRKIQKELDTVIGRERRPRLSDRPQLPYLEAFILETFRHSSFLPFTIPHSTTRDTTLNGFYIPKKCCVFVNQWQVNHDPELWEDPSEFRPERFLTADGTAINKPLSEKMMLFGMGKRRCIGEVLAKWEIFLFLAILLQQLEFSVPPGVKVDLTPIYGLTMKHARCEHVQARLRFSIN

[3] = in vitro genotoxicity: numerical chromosomal aberrations; format: cell-based
[4] = Phase 1 Part 1 (SAD) safety and tolerability; format: in vivo, human; conditions: healthy subjects
Description: The primary outcome measure of Part 1 and Part 2 will be: (1) measurement of the safety and tolerability by subject incidence of graded treatment-emergent adverse events (TEAEs), laboratory abnormalities, and changes to vital signs, ECGs, cardiac telemetry, and physical examination findings.
Four sequential SAD cohorts were dosed.
For each cohort of Part 1, the daily dose of study drug was administered as a single dose (1 time daily or QD). In Part 1 of the study, following a screening period to determine eligibility, subjects in each cohort entered the Phase 1 clinical research unit (CRU) on the afternoon of Day −1. Study eligibility was re-confirmed upon admission to the CRU, and subjects remained in the CRU overnight prior to dosing on Day 1. Following Day 1, subjects remained in the CRU for an additional 72 hours post-dose (i.e., discharge on Day 4) to enable collection of plasma and urine for PK samples and other study assessments. Subjects were discharged from the CRU following plasma PK sample collection on Day 4 and returned on Day 16 (+2 days) for a final follow-up visit.

[5] = Phase 1 Parts 1 and 2 Holter ECG pharmacodynamics / exposure-response; format: in vivo, human
Description: ECGs were obtained according to the schedule in Tables 4 and 5 for Parts 1 and 2, respectively. A standard bedside 12-lead ECG machine or telemetry system that calculates HR and measures the PR, QRS, QT, RR, and QTc (QTcF) intervals was used. The acceptable deviations from the nominal ECG measurement time points were: re-dose: ≤2 hours before dosing; post dose: ±15 minutes from the nominal post-dose time point; and discharge: ±1 hour from the nominal time point.
Where possible, Holter-obtained and adjudicated ECGs were used to determine the change from baseline in mean differences in QTcF between each active treatment chosen to be analyzed relative to that obtained on subjects receiving placebo within a study part (for Part 2, within each cohort). At each time point Holter ECGs are analyzed, an individual subject's change from baseline will be calculated as:
Δik=(QTcF for subject I at time point k−Baseline QTcF), where QTcF measurements will be the average of triplicate ECGs at each time point. Baseline QTcF is the average of all pre-dose values.

[6] = Parts 1 and 2, model included placebo

COc1cc(-n2cnc(Nc3nc(N4CCC[C@H]4C(N)=O)nc4sccc34)c2)cc(OC)c1OC.O=C(O)CC(O)(CC(=O)O)C(=O)O [Compound A]
IC50 (wtALK2): < 100 nM
off-target effects [1]: minimal off-target effects
adverse central nervous system, respiratory, or cardiovascular issues [2]: no adverse central nervous system, respiratory, or cardiovascular issues
CYP1A2 inhibition (cytochrome P450 (CYP)1A2): not an inhibitor
induction of numerical chromosomal aberrations [3]: negative
safety and tolerability ([4]; Part 1, single ascending oral doses 5 mg to 25 mg): safe and generally well tolerated
grade 3 or 4 adverse events ([4]; Part 1, single oral doses 5 mg to 25 mg): no grade 3 or 4 adverse events
slope of ΔQTcF-concentration model ([5]; Parts 1 and 2): 0.0002
ΔQTcF-concentration model fit line and confidence boundaries ([5]; Parts 1 and 2): below 10 msec
slope of ΔHR-concentration model [5, 6]: 0.0004
slope of ΔPR-concentration model [5, 6]: −0.0033
slope of ΔQRS-concentration model [5, 6]: 0.0004
model predicted HR changes ([5]; at all concentrations): < 1 bpm
model predicted PR changes ([5]; at all concentrations): less than 2 msec
effect on the ECG (12-lead Holter monitoring) ([5]; single doses up to 25 mg and multiple daily doses over 7 days up to 20 mg): absence of a clinically significant effect
